Measured values from patent US20170327598A1, “SINGLE DOMAIN ANTIBODIES DIRECTED AGAINST INTRACELLULAR ANTIGENS” (SINGH MOLECULAR MEDICINE, LLC, priority 2014, published 2017).
“And” between values parts separate entries of the source, which are not always exact repeats. Equal entries are not always repeated. One block for each molecule: values may come before it.

Assays:
[1] = tested on: STAT3 reporter, induction by interleukin-6; test: STAT3 reporter GloResponse SIE-luc2P/HEK293 cell assay, IL-6 induction; assay type: cell-based; details: for effect on IL-6 induction of STAT3 reporter: 24 hours and 48 hours treatment prior to IL-6;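 on all read-outs here: IL-6 added at 40 ng/mL (EC80) for roughly one day after pretreatment, luciferase luminescence read with Bio-Glo reagent, untreated +IL6 wells serve as control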
[2] = tested on: GloResponse SIE-luc2P/HEK 293 cells; test: BCA protein concentration of reporter cells run in parallel; assay type: cell-based
PANC-1 cells = test: PANC-1 growth inhibition with or without Gemcitabine; details: for Absorbance: 72 hours
PANC-1 xenograft = test: PANC-1 xenograft, sdAb alone, Gemcitabine alone or combination, Example 19; details: for BODY WEIGHT (g) Mean / TUMOR VOLUMES (mm^3) Mean / % INHIBITION OF CONTROL (tumor growth): SBT-100 5 mg/kg BID, Gemcitabine 20 mg/kg, or both
endogenous STAT3 = target: T1, endogenous STAT3 (Homo sapiens, UniProt P40763); test: Immunoprecipitation of endogenous STAT3 from MDA-MB-231 lysate, Western blot; assay type: binding; details: FIG. 3
T1 construct: endogenous STAT3 immunoprecipitated with all sdAbs tested at varying amounts; endogenous in cells
Protocol: The specificity of STAT3 sdAbs was assayed in human breast cancer cells. […] The cells were then disrupted in freshly prepared ice-cold lysis buffer (20 mM HEPES, pH 7.9, 400 mM NaCl, 0.1% NP-40, 10% glycerol, 1 mM sodium vanadate, 1 mM sodium fluoride, 1 mM dithiothreitol, 1 mM phenylmethylsulfonyl fluoride, 10 μg/mL aprotinin, 10 μg/mL leupeptin) for 45 minutes on ice. Lysates were then centrifuged, the supernatant collected, and protein concentration was determined using a modified Lowry method (Bio Rad, Hercules, Calif.). Total protein (1 mg) was incubated with 1.5 mg of Dynabeads (Invitrogen) with sdAbs against STAT3, a positive control (STAT3, cat#SC-482, Santa Cruz Biotechnology, Dallas, Tex.), or negative control (STAT-1, cat#9172, Cell Signaling, Danvers, Mass.) for 1 hour at 4° C. Beads were then washed. Following the final wash, 60 μl of lysis buffer was added, and the resulting supernatant was subject to Western blot analysis. Briefly, samples were separated on 10% polyacrylamide gels and transferred to a nitrocellulose membrane. The membranes were blocked, then incubated with appropriate primary and secondary antibodies. Anti-STAT3 antibody, used as a positive control, was from Cell Signaling (Cat#4904, Danvers, Mass.). The chemiluminescence reaction was performed using the ECL system from Santa Cruz Biotechnology (Dallas, Tex.).

[3] = target: T2, active human TNF-α full length protein (Homo sapiens, UniProt P01375); test: TNF ELISA, binding of anti-TNF-α sdAbs to coated TNF-α protein; details: for detection in coated versus non-coated wells: 1 μg/mL sdAb, 0.5 μg/mL coating antigen; for binding to the TNF-α protein, detection: Experiment 1, 1 μg/mL sdAb; for OD450 Values: Non-Coated wells, sdAb 1 μg/mL, non-specific binding
T2 construct: purchased Abcam
Protocol: In this Example, the binding of anti-TNF-α sdAbs to active human TNF-α full length protein was assessed using an enzyme linked immunosorbent assay (ELISA) format. Additionally, the feasibility of utilizing a secondary antibody targeted to the his tag portion of the sdAbs was assessed.
Plates were incubated overnight at 2-8° C. After the incubation, plates were washed (3×) and blocked (3% Bovine Serum Albumin (BSA) in Phosphate Buffered Saline (PBS)) for at least one hour at room temperature.
After removal of the blocking buffer and washing (3×), samples were added to the appropriate wells of the ELISA plates and incubated at room temperature with shaking (150 rpm) for at least one hour. The secondary antibody (rabbit anti-llama biotinylated antibody at either a 1:5,000 or 10,000 dilution) was then added to each well and incubated with shaking for at least one hour at room temperature.
After the incubation with secondary antibody, the plates were again washed (3×) and horseradish peroxidase (HRP) at either a 1:25,000 or 1:50,000 dilution was added to each well. Plates were incubated with shaking for at least one hour at room temperature. A final wash (3×) was performed followed by the addition of TMB (Tetramethylbenzidine) substrate. After a 20 to 25 minute incubation at room temperature, stop solution was added to halt the colorimetric reaction. The absorbance at 450 nm was measured on a VersaMax instrument utilizing SoftMax Pro GxP version 5.4 software from Molecular Devices (Sunnyvale, Calif.).
The final experiment performed was to confirm that the results from the ELISA testing were due to binding to the TNF-α protein and not non-specific binding of the sdAb. For this determination, a comparison was made between wells coated with 0.5 μg/mL of coating antigen and non-coated wells. […] This experiment confirms that the detection seen with the previous experiments was due to the specific binding of the VHH to the coating antigen and not due to non-specific binding.

[4] = tested on: rabbit anti-llama biotinylated antibody or his-probe (H-3) biotin labeled antibody; test: ELISA with sdAbs coated, binding of secondary antibodies (Experiments 2 and 3)
Protocol: Two assays (Experiment 2 and 3) were performed to assess the binding of the secondary antibody to the sdAbs. A similar ELISA method was utilized except the sdAbs were directly coated onto the assay plate at a concentration of 1 μg/mL. Plates were incubated overnight at 2-8° C. After the incubation, plates were washed (3×) and blocked (3% BSA in PBS) for at least one hour at room temperature.
After removal of the blocking buffer and washing (3×), the secondary antibodies, either rabbit anti-llama biotinylated antibody or his-probe (H-3) biotin labeled antibody at was then added at a 1:5,000 dilution to each well and incubated with shaking for at least one hour at room temperature. Only the rabbit anti-llama biotinylated antibody was used in Experiment 2. Both antibodies were run in parallel in Experiment 3.
After the incubation with secondary antibody, the plates were again washed (3×) and HRP at a 1:50,000 dilution was added to each well. Plates were incubated with shaking for at least one hour at room temperature. One last wash (3×) was performed followed by the addition of TMB substrate and plates were incubated at room temperature. For the anti-llama biotinylated antibody stop solution was added to halt the colorimetric reaction at 10 minutes. The his-probe (H-3) biotin labeled antibody was allowed to incubate for 20 minutes prior to stopping. The absorbance at 450 nm was measured as before.

[5] = 24 Hour Treatment Prior to IL6 Induction, high conc.: VHH13 55.8 μg/mL, VHH14 84.3 μg/mL, BB1608 4.16 μM, VHH69 50.5 μg/mL
[6] = 24 Hour Treatment Prior to IL6 Induction, low conc.: VHH13, VHH14, VHH69 10 μg/mL, BB1608 2 μM
[7] = 48 Hour Treatment Prior to IL6 Induction, high conc.: VHH13 55.8 μg/mL, VHH14 84.3 μg/mL, BB1608 4.16 μM, VHH69 50.5 μg/mL
[8] = 48 Hour Treatment Prior to IL6 Induction, low conc.: VHH13, VHH14, VHH69 10 μg/mL, BB1608 2 μM
[9] = His-probe (H-3), Experiment 3, stored 1:100 dilution of sdAb
[10] = Rabbit anti-Llama Secondary Antibody, Experiment 2, sdAb coated at 1 μg/mL
[11] = Rabbit anti-Llama Secondary Antibody, Experiment 3, stored 1:100 dilution of sdAb

T2 sequence (P01375 77-233 limits assumed): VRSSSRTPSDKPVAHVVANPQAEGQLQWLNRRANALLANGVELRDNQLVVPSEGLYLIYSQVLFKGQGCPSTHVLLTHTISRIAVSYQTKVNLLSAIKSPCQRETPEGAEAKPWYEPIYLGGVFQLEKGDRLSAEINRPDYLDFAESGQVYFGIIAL
T1 sequence (P40763 whole entry): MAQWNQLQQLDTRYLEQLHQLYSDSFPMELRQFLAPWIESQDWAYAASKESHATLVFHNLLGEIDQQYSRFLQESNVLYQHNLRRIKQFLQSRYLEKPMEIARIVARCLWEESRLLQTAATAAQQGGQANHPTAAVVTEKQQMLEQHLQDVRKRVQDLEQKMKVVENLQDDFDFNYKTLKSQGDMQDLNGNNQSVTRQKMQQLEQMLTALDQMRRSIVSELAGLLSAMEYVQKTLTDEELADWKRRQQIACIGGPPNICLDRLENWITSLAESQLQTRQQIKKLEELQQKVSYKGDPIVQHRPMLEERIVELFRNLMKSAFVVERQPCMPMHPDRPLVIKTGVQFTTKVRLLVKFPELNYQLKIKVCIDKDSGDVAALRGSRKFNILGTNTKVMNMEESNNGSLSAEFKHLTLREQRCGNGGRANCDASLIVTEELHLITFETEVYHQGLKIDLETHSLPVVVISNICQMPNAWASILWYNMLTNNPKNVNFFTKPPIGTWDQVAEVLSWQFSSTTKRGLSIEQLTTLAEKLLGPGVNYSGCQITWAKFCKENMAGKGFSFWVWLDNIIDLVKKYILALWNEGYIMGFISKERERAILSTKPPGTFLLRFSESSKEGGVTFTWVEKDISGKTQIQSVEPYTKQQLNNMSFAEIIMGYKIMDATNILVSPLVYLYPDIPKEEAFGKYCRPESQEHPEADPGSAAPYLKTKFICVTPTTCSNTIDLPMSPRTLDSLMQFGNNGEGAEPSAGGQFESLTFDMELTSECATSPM

Molecule: CC(=O)c1cc2c(o1)C(=O)c1ccccc1C2=O [BB1608, napabucasin, reference compound]
Average RLU [1, 5]: 33 RLU
Average RLU with Media Blank [1, 5]: 8 RLU
Fold-Induction RLU/RLU of-IL6 [1, 5]: 0
Luminescence (RLU), single wells [1, 5]: 41 RLU and 28 RLU and 31 RLU
Average RLU [1, 6]: 38 RLU
Average RLU with Media Blank [1, 6]: 12 RLU
Fold-Induction RLU/RLU of-IL6 [1, 6]: 0
Luminescence (RLU), single wells [1, 6]: 41 RLU and 33 RLU and 39 RLU
Average RLU [1, 7]: 29 RLU
Average RLU with Media Blank [1, 7]: −3 RLU
Fold-Induction RLU/RLU of−IL6 [1, 7]: 0
Luminescence (RLU), single wells [1, 7]: 25 RLU and 31 RLU and 32 RLU
Average RLU [1, 8]: 33 RLU
Average RLU with Media Blank [1, 8]: 0 RLU
Fold-Induction RLU/RLU of−IL6 [1, 8]: 0
Luminescence (RLU), single wells [1, 8]: 26 RLU and 42 RLU and 31 RLU
effect on IL-6 induction of STAT3 reporter [1]: Inhibition of IL-6
Protein concentration [2, 5]: 174
Protein concentration [2, 6]: 425
Protein concentration [2, 7]: 165
Protein concentration [2, 8]: 324

Molecule: Nc1ccn([C@@H]2O[C@H](CO)[C@@H](O)C2(F)F)c(=O)n1 [Gemcitabine]
Absorbance (PANC-1 cells; Gemcitabine 0.020 μM in DMSO): 1.560
Absorbance (PANC-1 cells; Gemcitabine 0.039 μM in DMSO): 1.240
Absorbance (PANC-1 cells; Gemcitabine 0.625 μM in DMSO): 1.050
Absorbance (PANC-1 cells; Gemcitabine 5 μM in DMSO): 0.631
Absorbance (PANC-1 cells; Gemcitabine 10 μM in DMSO): 0.543
IC50 (PANC-1 cells; Homo sapiens, PANC-1, read-out: IC50 concentration): 10 µM
Mean Tumour Size (mm^3) Day 1 (PANC-1 xenograft; Day 1 (start of treatment), SBT-100 5 mg/kg IP BID × 14, Gemcitabine 20 mg/kg IP QD × 7, or both): 122.23 ± 23.46 mm^3
BODY WEIGHT (g) Mean (PANC-1 xenograft; Day 1): 23.77 g
TUMOR VOLUMES (mm^3) Mean (PANC-1 xenograft; Day 1): 122.23 mm^3
BODY WEIGHT (g) Mean (PANC-1 xenograft; Day 5): 23.47 g
TUMOR VOLUMES (mm^3) Mean (PANC-1 xenograft; Day 5): 165.57 mm^3
BODY WEIGHT (g) Mean (PANC-1 xenograft; Day 8): 23.37 g
TUMOR VOLUMES (mm^3) Mean (PANC-1 xenograft; Day 8): 183.88 mm^3
% INHIBITION OF CONTROL (tumor growth) (PANC-1 xenograft; Day 12): 19.51%
BODY WEIGHT (g) Mean (PANC-1 xenograft; Day 12): 23.13 g
TUMOR VOLUMES (mm^3) Mean (PANC-1 xenograft; Day 12): 191.6 mm^3
% INHIBITION OF CONTROL (tumor growth) (PANC-1 xenograft; Day 15): 23.17%
TUMOR VOLUMES (mm^3) Mean (PANC-1 xenograft; Day 15): 246.48 mm^3
% INHIBITION OF CONTROL (tumor growth) (PANC-1 xenograft; Day 19): 23.26%
BODY WEIGHT (g) Mean (PANC-1 xenograft; Day 19): 23.97 g
TUMOR VOLUMES (mm^3) Mean (PANC-1 xenograft; Day 19): 312.74 mm^3
% INHIBITION OF CONTROL (tumor growth) (PANC-1 xenograft; Day 22): 14.93%
BODY WEIGHT (g) Mean (PANC-1 xenograft; Day 22): 24.55 g
TUMOR VOLUMES (mm^3) Mean (PANC-1 xenograft; Day 22): 411.93 mm^3

B1: anti-TNF-alpha VHH62: third anti-TNF-alpha single domain antibody, SEQ ID NO:47 (protein)
VHH: QVQLVESGGGPVQAGETLRLSCTASGFTFAEADMGWYRQAPGHECELVSTITTEGITSEASSYYADSVRGRFTISRDNAKNMVYLQMNSLKPEDTAVYYCAPDPYAYSTYSDYCSWAQGTQGTLVTVSS
modifications: Camelid
detection in coated versus non-coated wells [3]: not detected in either coated or non-coated wells
binding to the TNF-α protein, detection [3]: little to no detection
OD values ([3]; Experiment 4, 10-fold serial dilutions starting at 1 μg/mL): < 0.2 OD450
OD450 Values [3]: −0.001
OD450 Values [4, 9]: 0.196
OD450 Values [4, 10]: 1.485
OD450 Values [4, 11]: 2.341

Now from value to molecule, other results behind:

immunoprecipitation of endogenous STAT3 (endogenous STAT3): no band
Molecule: STAT-1: negative control in immunoprecipitation (STAT-1, cat#9172, Cell Signaling) [reference compound]

binding to the TNF-α protein, detection [3]: little to no detection
OD450 Values [3]: 0.007
OD450 Values [4, 9]: 0.153
OD450 Values [4, 10]: 0.499
OD450 Values [4, 11]: 0.443
B2: anti-TNF-alpha VHH69: second anti-TNF-alpha single domain antibody, SEQ ID NO:46 (protein)
VHH: EVQLVESGGGSVLAGGSLRLSCVASGFTSRYNYMAWFRQAPGKEREGVATIGTASGSADYYGSVKDRFTISQDNAKNTVYLQMNSLKPEDTAMYYCAARTYGTISLTPSDYRYWGQGTLVTVSS
modifications: Camelid
detection in coated versus non-coated wells [3]: detected in coated wells but not in non-coated wells
Average RLU [1, 5]: 198596 RLU
Average RLU with Media Blank [1, 5]: 198571 RLU
Fold-Induction RLU/RLU of-IL6 [1, 5]: 434
Luminescence (RLU), single wells [1, 5]: 203139 RLU and 194320 RLU and 198330 RLU
Average RLU [1, 6]: 169752 RLU
Average RLU with Media Blank [1, 6]: 169726 RLU
Fold-Induction RLU/RLU of-IL6 [1, 6]: 371
Luminescence (RLU), single wells [1, 6]: 159115 RLU and 184364 RLU and 165776 RLU
Average RLU [1, 7]: 225726 RLU
Average RLU with Media Blank [1, 7]: 225694 RLU
Fold-Induction RLU/RLU of−IL6 [1, 7]: 452
Luminescence (RLU), single wells [1, 7]: 237816 RLU and 220259 RLU and 219104 RLU
Average RLU [1, 8]: 172988 RLU
Average RLU with Media Blank [1, 8]: 172955 RLU
Fold-Induction RLU/RLU of−IL6 [1, 8]: 347
Luminescence (RLU), single wells [1, 8]: 191241 RLU and 171796 RLU and 155927 RLU
effect on IL-6 induction of STAT3 reporter [1]: enhancement of the IL-6 induction
Protein concentration [2, 5]: 213
Protein concentration [2, 6]: 237
Protein concentration [2, 8]: 222
